Data published in EP0318620A1, “Herbicidal sulfonamides” (E.I. DU PONT DE NEMOURS AND COMPANY, priority 1987, dated 1989).

What was measured:
nutsedge = test: Test B pan test in Sassafras sandy loam soil, pre- and postemergence; format: in vivo, Cyperus rotundus; details: scale 0 to 100
Text: (§1) Three round pans (25 cm diameter by 12.5 cm deep) were filled with Sassafras sandy loam soil. One pan was planted with nutsedge (Cyperus rotundus) tubers, crabgrass (Digitaria sanguinalis), sicklepod (Cassia obtusifolia), jimsonweed (Datura stramonium), velvetleaf (Abutilon theophrasti), lambsquarters (Chenopodim album), rice (Oryza sativa) and teaweed (Sida spinosa). The second pot was planted with green foxtail (Setaria viridis), cocklebur (Xantium pensyivanicum), morningglory (lpomoea hederacea), cotton (Gossypium hirsutum), johnsongrass (Sorghum halepense), barnyardgrass (Echinochloa crusgalli), corn (Zea mays), soybean (Glycine max) and giant foxtail (Setaria faberi). The third pot was planted with wheat (Triticum aestivum), barley (Hordeum vulgare), wild buckwheat (Polgonum convolvulus L.), cheatgrass (Bromus secalinus L.), sugarbeet (Beta vulgaris), wild oats (Avena fatua), viola (Viola arvensis), blackgrass (Alopecurus myosuroides), and rape (Brassica napus). The plants were grown for approximately fourteen days, then sprayed postemergence with the chemicals dissolved in a non-phytotoxic solvent.
(§2) Three round pans (25 cm diameter by 12.5 cm deep) were filled with Sassafras sandy loam soil. One pan was planted with nutsedge tubers, crabgrass, sicklepod, jimsonweed, velvetleaf, lambsquarters, rice and teaweed. The second pot was planted with green foxtail, cocklebur, morningglory, cottom, johnsongrass, . barnyardgrass, corn, soybean and giant foxtail. The third pot was planted with wheat, barley, wild buckwheat, cheatgrass, sugarbeet, wild oat, viola, blackgrass and rape. The three pans were sprayed preemer gence with the chemicals dissolved in a non-phytotoxic solvent.
(§3) Treated plants and controls were maintained in the greenhouse for 24 days, then all rated plants were compared to controls and visually rated for plant response.
(§4) A dash (-) response means no test.

purple nutsedge = test: Test A greenhouse herbicide test, pre- and postemergence; format: in vivo, Cyperus rotundus; details: rated after sixteen days
Text: (§5) Seeds of crabgrass (Digitaria spp.), barnyardgrass (Echinochloa crusgalli), cheatgrass (Bromus Secalinus), giant foxtail (Setaria faberii), wild oats (Avena fatua), velvetleaf (Abutilon theophrasti), morningglory (Ipomoea spp. , cocklebur (Xanthium pensylvanicum). sorghum, corn, barley, soybean, sugarbeet, cotton, rice, wheat and purple nutsedge (Cyperus rotundus) tubers were planted and treated preemergence with the test chemicals dissolved in a non-phytotoxic solvent. At the same time, these crop and weed species were treated with a soil/foliage application. At the time of treatment, the plants ranged in height from 2 to 18 cm. Treated plants and controls were maintained in a greenhouse for sixteen days, after which all species were compared to controls and visually rated for response to treatment. The ratings, summarized in Table A, are based on a numerical scale extending from 0 = no injury, to 10 = complete kill. The accompanying descriptive symbols have the following meanings: • B = burn; • C = chlorosis/necrosis; • D = defoliation; • E = emergence inhibition; • G = growth retardation; • H = formative effect; • U = unusual pigmentation; • X = axillary stimulation; • S = albinism; and • 6Y = abscised buds or flowers.

wild oats = test: Test B pan test in Sassafras sandy loam soil, pre- and postemergence; format: in vivo, Avena fatua; details: scale 0 to 100
Text: as §1, §2, §3, §4

crabgrass = test: Test A greenhouse herbicide test, pre- and postemergence; format: in vivo, Digitaria spp.; details: PREEMERGENCE; RATE 0.01 KG/HA; rated after sixteen days
Text: as §5

rice [1] = test: as above; format: in vivo; details: rated after sixteen days
Text: as §5

corn [2] = test: as above; format: in vivo; details: rated after sixteen days
Text: as §5

soybean = test: as above; format: in vivo; details: rated after sixteen days
Text: as §5

sugarbeet = test: as above; format: in vivo; details: POSTEMERGENCE, rated after sixteen days
Text: as §5

cotton = test: as above; format: in vivo; details: rated after sixteen days
Text: as §5

sorghum = test: as above; format: in vivo; details: POSTEMERGENCE; RATE 0.05 KG/HA; rated after sixteen days
Text: as §5

cocklebur = test: Test B pan test in Sassafras sandy loam soil, pre- and postemergence; format: in vivo, Xantium pensyivanicum; details: scale 0 to 100
Text: as §1, §2, §3, §4

corn [3] = test: as above; format: in vivo, Zea mays; details: scale 0 to 100
Text: as §1, §2, §3, §4

morningglory [4] = test: as above; format: in vivo, lpomoea hederacea; details: scale 0 to 100
Text: as §1, §2, §3, §4

morningglory [5] = test: Test A greenhouse herbicide test, pre- and postemergence; format: in vivo, Ipomoea spp.; details: rated after sixteen days
Text: as §5

teaweed = test: Test B pan test in Sassafras sandy loam soil, pre- and postemergence; format: in vivo, Sida spinosa; details: scale 0 to 100
Text: as §1, §2, §3, §4

velvetleaf = test: Test A greenhouse herbicide test, pre- and postemergence; format: in vivo, Abutilon theophrasti; details: rated after sixteen days
Text: as §5

rice [6] = test: Test B pan test in Sassafras sandy loam soil, pre- and postemergence; format: in vivo, Oryza sativa; details: scale 0 to 100
Text: as §1, §2, §3, §4

## CCOC(=O)c1c(CC#N)cccc1S(=O)(=O)NC(=O)Nc1nc(OC)cc(OC)n1 [Compound 3, 2-(cyanomethyl)-6 [[(4,6-dimethoxypyrimidin-2-yl)-aminocarbonyl]aminosulfonyl]benzoic acid, ethyl ester]
nutsedge; POSTEMERGENCE, RATE 0001 G/HA
  NUTSEDGE response rating: 100
nutsedge; POSTEMERGENCE, RATE 0004 G/HA
  NUTSEDGE response rating: 100
nutsedge; POSTEMERGENCE, RATE 0016 G/HA
  NUTSEDGE response rating: 100
nutsedge; POSTEMERGENCE, RATE 0062 G/HA
  NUTSEDGE response rating: 100
nutsedge; PREEMERGENCE, RATE 0004 G/HA
  NUTSEDGE response rating: 0
nutsedge; PREEMERGENCE, RATE 0016 G/HA
  NUTSEDGE response rating: 30
nutsedge; PREEMERGENCE, RATE 0062 G/HA
  NUTSEDGE response rating: 70
Purple nutsedge; POSTEMERGENCE, RATE 0.01 KG/HA
  NUTSEDGE visual rating of response to treatment: 10C
Purple nutsedge; POSTEMERGENCE, RATE 0.05 KG/HA
  NUTSEDGE visual rating of response to treatment: 10C
Purple nutsedge; PREEMERGENCE, RATE 0.01 KG/HA
  NUTSEDGE visual rating of response to treatment: 4G
Purple nutsedge; PREEMERGENCE, RATE 0.05 KG/HA
  NUTSEDGE visual rating of response to treatment: 9G
Wild oats; POSTEMERGENCE, RATE 0001 G/HA
  WILD OATS response rating: 0
Wild oats; POSTEMERGENCE, RATE 0004 G/HA
  WILD OATS response rating: 30
Wild oats; POSTEMERGENCE, RATE 0016 G/HA
  WILD OATS response rating: 50
Wild oats; POSTEMERGENCE, RATE 0062 G/HA
  WILD OATS response rating: 80
Wild oats; PREEMERGENCE, RATE 0004 G/HA
  WILD OATS response rating: 20
Wild oats; PREEMERGENCE, RATE 0016 G/HA
  WILD OATS response rating: 40
Wild oats; PREEMERGENCE, RATE 0062 G/HA
  WILD OATS response rating: 60
crabgrass
  CRABGRASS visual rating of response to treatment: 4G
Rice [1]; POSTEMERGENCE, RATE 0.01 KG/HA
  RICE visual rating of response to treatment: 9C
Rice [1]; POSTEMERGENCE, RATE 0.05 KG/HA
  RICE visual rating of response to treatment: 9C
Rice [1]; PREEMERGENCE, RATE 0.01 KG/HA
  RICE visual rating of response to treatment: 3G
Corn [2]; POSTEMERGENCE, RATE 0.01 KG/HA
  CORN visual rating of response to treatment: 10C
Corn [2]; PREEMERGENCE, RATE 0.05 KG/HA
  CORN visual rating of response to treatment: 9H
soybean; POSTEMERGENCE, RATE 0.05 KG/HA
  SOYBEAN visual rating of response to treatment: 9C
soybean; PREEMERGENCE, RATE 0.01 KG/HA
  SOYBEAN visual rating of response to treatment: 5G
sugarbeet; RATE 0.01 KG/HA
  SUGAR BEETS visual rating of response to treatment: 10C
sugarbeet; RATE 0.05 KG/HA
  SUGAR BEETS visual rating of response to treatment: 10C
cotton; POSTEMERGENCE, RATE 0.01 KG/HA
  COTTON visual rating of response to treatment: 9C
cotton; POSTEMERGENCE, RATE 0.05 KG/HA
  COTTON visual rating of response to treatment: 10C
cotton; PREEMERGENCE, RATE 0.01 KG/HA
  COTTON visual rating of response to treatment: 3G
sorghum
  SORGHUM visual rating of response to treatment: 9C
cocklebur; POSTEMERGENCE, RATE 0001 G/HA
  COCKLEBUR response rating: 70
cocklebur; POSTEMERGENCE, RATE 0004 G/HA
  COCKLEBUR response rating: 80
cocklebur; POSTEMERGENCE, RATE 0016 G/HA
  COCKLEBUR response rating: 90
cocklebur; POSTEMERGENCE, RATE 0062 G/HA
  COCKLEBUR response rating: 100
cocklebur; PREEMERGENCE, RATE 0004 G/HA
  COCKLEBUR response rating: 30
cocklebur; PREEMERGENCE, RATE 0016 G/HA
  COCKLEBUR response rating: 60
cocklebur; PREEMERGENCE, RATE 0062 G/HA
  COCKLEBUR response rating: 90
Corn [3]; POSTEMERGENCE, RATE 0001 G/HA
  CORN response rating: 90
Corn [3]; POSTEMERGENCE, RATE 0004 G/HA
  CORN response rating: 100
Corn [3]; POSTEMERGENCE, RATE 0016 G/HA
  CORN response rating: 100
Corn [3]; POSTEMERGENCE, RATE 0062 G/HA
  CORN response rating: 100
Corn [3]; PREEMERGENCE, RATE 0004 G/HA
  CORN response rating: 0
Corn [3]; PREEMERGENCE, RATE 0016 G/HA
  CORN response rating: 30
Corn [3]; PREEMERGENCE, RATE 0062 G/HA
  CORN response rating: 60
Morningglory [4]; POSTEMERGENCE, RATE 0001 G/HA
  MORNINGGLORY response rating: 30
Morningglory [4]; POSTEMERGENCE, RATE 0004 G/HA
  MORNINGGLORY response rating: 50
Morningglory [4]; POSTEMERGENCE, RATE 0016 G/HA
  MORNINGGLORY response rating: 70
Morningglory [4]; POSTEMERGENCE, RATE 0062 G/HA
  MORNINGGLORY response rating: 90
Morningglory [4]; PREEMERGENCE, RATE 0004 G/HA
  MORNINGGLORY response rating: 0
Morningglory [4]; PREEMERGENCE, RATE 0016 G/HA
  MORNINGGLORY response rating: 0
Morningglory [4]; PREEMERGENCE, RATE 0062 G/HA
  MORNINGGLORY response rating: 30
Morningglory [5]; POSTEMERGENCE, RATE 0.01 KG/HA
  MORNING GLORY visual rating of response to treatment: 10C
Morningglory [5]; POSTEMERGENCE, RATE 0.05 KG/HA
  MORNING GLORY visual rating of response to treatment: 10C
Morningglory [5]; PREEMERGENCE, RATE 0.01 KG/HA
  MORNING GLORY visual rating of response to treatment: 2G
Morningglory [5]; PREEMERGENCE, RATE 0.05 KG/HA
  MORNING GLORY visual rating of response to treatment: 9G
teaweed; POSTEMERGENCE, RATE 0001 G/HA
  TEAWEED response rating: 30
teaweed; POSTEMERGENCE, RATE 0004 G/HA
  TEAWEED response rating: 50
teaweed; POSTEMERGENCE, RATE 0016 G/HA
  TEAWEED response rating: 70
teaweed; POSTEMERGENCE, RATE 0062 G/HA
  TEAWEED response rating: 100
teaweed; PREEMERGENCE, RATE 0004 G/HA
  TEAWEED response rating: 0
teaweed; PREEMERGENCE, RATE 0016 G/HA
  TEAWEED response rating: 0
teaweed; PREEMERGENCE, RATE 0062 G/HA
  TEAWEED response rating: 0
velvetleaf; POSTEMERGENCE, RATE 0.01 KG/HA
  VELVETLEAF visual rating of response to treatment: 10C
velvetleaf; POSTEMERGENCE, RATE 0.05 KG/HA
  VELVETLEAF visual rating of response to treatment: 10C
velvetleaf; PREEMERGENCE, RATE 0.01 KG/HA
  VELVETLEAF visual rating of response to treatment: 2H
velvetleaf; PREEMERGENCE, RATE 0.05 KG/HA
  VELVETLEAF visual rating of response to treatment: 5H
Rice [6]; POSTEMERGENCE, RATE 0001 G/HA
  RICE response rating: 60
Rice [6]; POSTEMERGENCE, RATE 0004 G/HA
  RICE response rating: 90
Rice [6]; POSTEMERGENCE, RATE 0016 G/HA
  RICE response rating: 100
Rice [6]; POSTEMERGENCE, RATE 0062 G/HA
  RICE response rating: 100
Rice [6]; PREEMERGENCE, RATE 0004 G/HA
  RICE response rating: 0
Rice [6]; PREEMERGENCE, RATE 0016 G/HA
  RICE response rating: 30
Rice [6]; PREEMERGENCE, RATE 0062 G/HA
  RICE response rating: 80
